Experimental data published in a melting point compilation (Tetko et al.; mined from patent text by program, amines drawn as free bases though some values may be those of a salt).
Starred links: 1 amine or outer side, 2 acyl side, 3 side chain; linkers in the order of their positions; H or OH if unused. Non-standard residues stand in square brackets, D forms with d. Residues, ends and D or L forms follow the SMILES beside them. *: point of attachment. Hyp = O=C(O)[C@@H]1C[C@@H](O)CN1; βNA = c1ccc2cc(N*)ccc2c1; 2Abz = Nc1ccccc1C(=O)O; CO = O=C([*:1])[*:2]; Bn = c1ccc(C*)cc1

Compared with `c1ccc2c(N3CCNCC3)nsc2c1`, `c1ccc(CN2CCN(c3n[nH]c4c3Cc3ccccc3-4)CC2)cc1` is higher in melting point: 88 to 90 °C for the first, 256 to 258 °C for the second.

Compared with `O=C(Nc1ccc2ccccc2c1-c1c(P(c2ccccc2)c2ccccc2)ccc2ccccc12)c1ccccc1`, `C1=CC(n2nc(-c3cccc4ccccc34)cc2-c2ccccc2)(n2nc(-c3cccc4ccccc34)cc2-c2ccccc2)CC=C1c1ccccc1` is higher in melting point: 94.8 °C for the first, 264 °C for the second.

Compared with `O=c1cnc2c(NCCO)nc(SCc3cccc(Cl)c3F)nc2[nH]1`, `CC(=O)Nc1[nH]cc(-c2ccc(NS(=O)(=O)c3cccc(Cl)c3Cl)cc2)c1C(N)=O` is higher in melting point: 195 to 196 °C for the first, 265 °C for the second.

Compared with `CCCCCCCCCCNC(=O)c1ccc(C(=O)NCCCCCCCCCC)c([N+](=O)[O-])c1`, `CCCCCCCCCCCCCCC(=O)C(=O)N[C@@H](CCCC)COCC(=O)OCC` is lower in melting point: 159 to 160 °C for the first, 41 to 43 °C for the second.

First: CC1(C)Oc2cc(C#N)c(C#N)cc2O1
Second: CC1(C)Oc2ccc(C#N)cc2C(Nc2ccc(=O)[nH]c2)C1O (stereo not drawn)
The melting point of the first is lower: 202 to 203 °C for the first, 285 to 287 °C for the second.

Compared with `CC(C)n1nc(-c2cnc(N)nc2-c2ccccc2F)ccc1=O`, `COc1ccc(-c2nn(Cc3cccnc3)c(=O)cc2-c2ccncc2)cc1` is lower in melting point: 239 to 240 °C for the first, 162 °C for the second.

First: COCC(C)(Oc1ccc(CC(=O)Nc2cc(C)cc(C)c2)cc1)C(=O)O (stereo not drawn)
Second: COc1ccc(CC2CCCN(c3nc(C)c(C(=O)NCc4ccccc4)s3)C2=O)cc1 (stereo not drawn)
The melting point of the first is higher: 170 to 172 °C for the first, 116 to 118 °C for the second.

Compared with `CCCOCCNC(=O)C(c1ccccc1)c1ccccc1`, `O=C(O)CC(Cc1ccccc1)N1C(=O)c2ccccc2C1=O` (stereo not drawn) is higher in melting point: 77.8 to 78.9 °C for the first, 123 to 124 °C for the second.

Compared with `O=C1Nc2ccc([N+](=O)[O-])cc2C1c1ncnc2nn(C3CCCCC3)cc12` (stereo not drawn), `COc1ccc(C2=NN(C3CCCC3)C(=O)[C@H]3CC=CC[C@@H]23)cc1OC` (relative stereo) is lower in melting point: 301 to 304 °C for the first, 131 to 133 °C for the second.

First: CCOC(=O)c1c[nH]cc1-c1ccccc1[N+](=O)[O-]
Second: O=C(O)[C@H](CSc1ccccc1[N+](=O)[O-])N1C(=O)c2ccccc2C1=O
The melting point of the first is lower: 159 to 161 °C for the first, 220 to 222 °C for the second.

Compared with `O=C1c2ccc(OCCN3CCOCC3)cc2C(=O)c2ccc(OCCN3CCOCC3)cc21`, `COc1cncnc1N1CCN(CCCc2c[nH]c3ccc(-c4c(NC(C)C)c(=O)c4=O)cc23)CC1` is lower in melting point: 200 to 201 °C for the first, 104 to 106 °C for the second.

First: N#Cn1nc(-c2ccccc2)c(=O)cc1Cl
Second: CCOC(=O)NNc1cc(C)c(-c2ccccc2)nn1
The melting point of the first is lower: 117 to 119 °C for the first, 143 to 145 °C for the second.

First: CC(C)Nc1cccnc1N1CCN(C(=O)c2ccc(C(=O)N3CCN(CCCO)CC3)cc2)CC1
Second: COc1ccc(N2CCN(Cc3ccc(CNC(C)=O)cc3)CC2)cc1
The melting point of the first is lower: 129 °C for the first, 137 to 138 °C for the second.

Compared with `COCc1cc(N2CCOCC2)ncn1`, `COCC1(O)CCN(c2c(F)cc([N+](=O)[O-])cc2F)CC1` is higher in melting point: 56 °C for the first, 84 to 86 °C for the second.

Compared with `CCCCn1nc2c(N)nc3ccccc3c2c1CC(C)(C)O`, `CCCn1nc2c(N)nc3ccccc3c2c1CCCCN1C(C)=NOC1(C)C` is higher in melting point: 130 °C for the first, 144 to 146 °C for the second.

Compared with `CC(C(=NO)c1ccc(Cl)cc1Cl)c1cccnc1` (stereo not drawn), `CC1OC(c2ccccc2Cl)c2cc(Cl)ccc2NC1=O` (stereo not drawn) is higher in melting point: 163 to 165 °C for the first, 214 to 215 °C for the second.

Compared with `COc1cc2c(cc1OC(C)C)-c1c(-c3cccnc3)c3c(n1CC2)C(=O)N(C(C)(C)C)CCOC3`, `Nc1cccnc1C1CCN(c2cc3c(cc2F)c(=O)c(C(=O)O)cn3C2CC2)C1` (stereo not drawn) is higher in melting point: 193 to 194 °C for the first, over 270 °C for the second.

Compared with `CC(C)C(c1cnccc1C(F)(F)F)N(C)C(=O)Cc1ccccc1` (stereo not drawn), `CCCc1cn(C(C)(C)C(=O)N(C)C)nc1-c1ccccc1` is higher in melting point: 71.2 °C for the first, 98.5 to 101 °C for the second.

First: C=CCN(CC=C)c1nc(NC(=O)OCc2ccccc2)n2oc(=O)nc2n1
Second: CCN(CC)Cc1ccc2[nH]c(C)c(C(=O)OCc3ccccc3)c2c1
The melting point of the first is higher: 171 to 173 °C for the first, 106 to 108 °C for the second.

Compared with `CC(=O)OCC1OC(F)C(OC(C)=O)C(OC(C)=O)C1OC(C)=O` (stereo not drawn), `CC(C)(C)OC(=O)[C@H]1CC[C@@H](c2ccccc2)N1C(=O)CNC(=O)Nc1ccc(O)c(C(=O)O)c1` (racemic) is higher in melting point: 68 to 69 °C for the first, 190 °C for the second.

Compared with `CN1Cc2ccc(Cl)cc2P1(=O)c1ccccc1` (stereo not drawn), `CN1C2=NCCCN2C(=O)c2cc(Cl)ccc21` is lower in melting point: 159 to 162 °C for the first, 119 to 120 °C for the second.

Compared with `CCN1C(=O)C(C)(C)C(=O)N(C)c2cc(CN(CCc3ccc(C)nc3C)Cc3scnc3C)ccc21`, `Cc1ccn2c(C)c(CCc3ccc4nc(NC(=N)N)oc4c3)nc2c1` is higher in melting point: 136 to 137 °C for the first, 195 to 196 °C for the second.

First: Cc1cc2cc(O)c(Cl)c(Cl)c2s1
Second: O=C(Nc1nc(C(Cl)(Cl)Cl)ns1)c1c(Cl)cccc1Cl
The melting point of the first is lower: 93 to 95 °C for the first, 209 °C for the second.

Compared with `COc1cc(OC)nc(NC(=O)NS(=O)(=O)Oc2ccccc2OCCCl)n1`, `CCOc1ccccc1OCCNC(=O)CCC(=O)c1ccc(F)cc1` is lower in melting point: 132 to 134 °C for the first, 98 to 100 °C for the second.

Compared with `N#Cc1c(N)nc2ccc([N+](=O)[O-])cc2c1NCc1ccccc1`, `Cc1nc(N2CCN(CC3(C#N)C=CC=CC3)C2=O)sc1C(=O)NCc1ccccc1` (stereo not drawn) is lower in melting point: 280 to 283 °C for the first, 176 to 178 °C for the second.

First: COC(=O)CCCNC(=O)C(CSC(C)=O)Cc1ccccc1 (stereo not drawn)
Second: CNC(=O)CCC(=NNC(N)=S)c1ccccc1
The melting point of the first is lower: 81 to 82 °C for the first, 205 to 207 °C for the second.

First: CCOC(=O)c1cc2cc(OCCCS(C)(=O)=O)cc(N)c2[nH]1
Second: CCOC(=O)c1cccc2ncc(CN(C)C)n12
The melting point of the first is higher: 187 to 188 °C for the first, 117 to 118 °C for the second.

First: Cc1c(NC(=O)c2ccc(-c3ccc(F)cc3)cc2)ccc2cc(C(O)c3ccccc3)cnc12 (stereo not drawn)
Second: NCCCc1nc2c([nH]1)-c1ccccc1N(C(=O)c1ccc(NC(=O)c3ccccc3-c3ccccc3)cc1)CC2
The melting point of the first is lower: 182 to 186 °C for the first, 220 to 223 °C for the second.

First: COC(=O)C(Cc1ccc(O)cc1)OC (stereo not drawn)
Second: COC(=O)c1cc(-c2ccc(C)cc2)no1
The melting point of the first is lower: 61 to 63 °C for the first, 106 to 108 °C for the second.

Compared with `O=C(O)c1ccc(-c2ccc3cc(CCO)c(C45CC6CC(CC(C6)C4)C5)cc3c2)cc1`, `CC(C(=O)O)c1ccc2cc(OCC=Cc3ccccc3)ccc2c1` (stereo not drawn) is lower in melting point: 276 to 278 °C for the first, 175 to 177 °C for the second.

First: Cc1cc(C(O)(C(F)(F)F)C(F)(F)F)cc(C)c1NCCC(=O)O
Second: CC(C)(C)c1cccc(S(=O)(=O)Nc2ncc(C(F)(F)F)cc2I)c1
The melting point of the first is higher: 175 to 176 °C for the first, 135 °C for the second.

Compared with `CC(=O)Nc1ccc(C(=O)NC2CCN(C3CCCCC3)C2)cc1` (stereo not drawn), `CN1C(=O)C(NC(=O)Nc2cccc(I)c2)N=C(N2CC3CCC(CC3)C2)c2ccccc21` (single isomer, unassigned; (+)) is higher in melting point: 184 to 186 °C for the first, 220 to 222 °C for the second.

Compared with `Cc1ccc(S(=O)(=O)NCCCN(C)S(=O)(=O)c2ccc(C)cc2)cc1`, `Cc1c(-c2ccc(O)cc2)oc2ccccc2c1=O` is higher in melting point: 93 °C for the first, 241 to 242 °C for the second.

Compared with `O=C1C=CC(O)(c2cc3ccccc3o2)C=C1`, `CC(=O)OCOC(=O)c1oc(-c2ccccc2)cc(=O)c1Br` is higher in melting point: 106 to 108 °C for the first, 121 °C for the second.

First: CC1(C)CC(=O)c2c(C3CCC3)sc(C#N)c2C1
Second: CC1(C)CCSc2cccc(O)c21
The melting point of the first is higher: 65 to 68 °C for the first, 48 °C for the second.

First: CNC(C)=CC(=O)CS(=O)(=O)NC(C)C
Second: CC(C)NC1=NS(=O)(=O)c2ccc(Cc3nc(C4CC4)no3)cc2N1
The melting point of the first is lower: 83 to 85 °C for the first, 255 to 259 °C for the second.

First: CCCN(CCC)C1Cc2cccc(C(N)=O)c2NC1=O (stereo not drawn)
Second: O=c1[nH]nc2c3c(cccc13)Oc1ccc(COP(=O)(O)O)cc1-2
The melting point of the first is lower: 214 to 217 °C for the first, 246 to 252 °C for the second.

Compared with `CCOC(=O)c1c(N2CCN(C(=O)c3cccs3)CC2)c2cscc2n(Cc2ccc(F)cc2)c1=O`, `Cc1oc(-c2ccco2)nc1COc1ccc(COc2ccccc2CC(=O)O)cc1` is lower in melting point: 227 °C for the first, 167 to 168 °C for the second.

First: CC(=O)Nc1ccc(/C=C/C(=O)NCC(=O)Nc2ccc(Cl)c(COc3cccc4ccc(C)nc34)c2Cl)cn1
Second: CC(C)(C)OC(=O)Nc1cc(OC(C)(C)C)c(-c2ccccc2F)cc1NC(=O)CC(=O)c1cccc(-n2ccnn2)c1
The melting point of the first is higher: 272 to 282 °C for the first, 47 to 50 °C for the second.

First: C[Si](C)(C)C#Cc1ccc(C=O)cc1
Second: O=S(=O)(CCl)c1ccc(-n2cnnn2)cc1
The melting point of the first is lower: 66 to 67 °C for the first, 168 to 172 °C for the second.

First: CC1=C(C)C(=O)C(CCCCCC2=C(C)C(=O)C(C)=C(C)C2=O)=C(C)C1=O
Second: CCOc1nc(NCCCCC2CC(C)(C)NC(C)(C)C2)nc(NCCCCC2CC(C)(C)NC(C)(C)C2)n1
The melting point of the first is higher: 138 °C for the first, 95 to 104 °C for the second.

Compared with `C1COCCOCCNCCOCC2(COCCN1)COC2`, `O=C(O)C1=C(C(=O)Nc2ccc(Br)cc2F)CCCC1` is lower in melting point: 147 to 150 °C for the first, 98 to 99 °C for the second.

Compared with `CC1(C)Nc2ccc(Br)cc2C(NC(=NC#N)Nc2ccccc2)C1O` (stereo not drawn), `Cc1ccccc1Oc1cccc(C(N)C(=O)O)c1O` (stereo not drawn) is lower in melting point: 232 to 233 °C for the first, 170 to 173 °C for the second.

First: c1cc(-n2cccc2)cc(-n2cnc3cc(-c4ccoc4)ccc32)c1
Second: Fc1ccc(N2CCN(c3cccc(C(F)(F)F)c3)CC2)nn1
The melting point of the first is higher: 144 to 145 °C for the first, 132 °C for the second.

First: CC(C)(C)OC(=O)NC1(CCC(=O)O)CC=CO1 (stereo not drawn)
Second: CN(C)C=C(C(=O)C(=O)c1ccccc1)c1ccc(C(=O)O)cc1
The melting point of the first is lower: 99 to 101 °C for the first, 208 to 209 °C for the second.

Compared with `Cc1ccc(Sc2cncc3sc(C(N)=S)cc23)cc1`, `COc1cccc(CSCCNC(=O)c2c([N+](=O)[O-])cccc2[N+](=O)[O-])c1` is lower in melting point: 181 to 183 °C for the first, 69 to 71 °C for the second.

Compared with `O=C(O)c1ccccc1NC(=O)[C@@H]1CCCN1C(=O)[C@@H]1C[C@@H](OCc2ccccc2)CN1C(=O)Nc1ccc2ccccc2c1` ({βNA-CO}-[Hyp](Bn)-Pro-[2Abz]-OH), `COc1ccc(CNc2n[nH]cc2C)cc1OC1CCCC1` is lower in melting point: 156 °C for the first, 76 to 77 °C for the second.

First: C=Cc1ccc(OC)c(OC)c1[N+](=O)[O-]
Second: COc1ccc2c(Cl)noc2c1Br
The melting point of the first is higher: 140 to 141 °C for the first, 134 to 135 °C for the second.

First: COc1ccc([N+](=O)[O-])c(CCc2cc(OC)ccc2[N+](=O)[O-])c1
Second: CC(COc1ccc2c(c1)CCCC2=O)n1ccnc1 (stereo not drawn)
The melting point of the first is higher: 193 to 195 °C for the first, 132 to 135 °C for the second.
